Literature values in article PMC3935482 (Clinical cancer research : an official journal of the …, 2013).
Like-named read-outs stand apart in the source and are kept apart here.

What was measured:
[1] = oral rapamycin and IV temsirolimus

Row | Half-life (given by weekly IV infusion) [h] | Cmax of rapamycin (5 mg oral rapamycin) [ng/mL] | Cmax of rapamycin (9 mg oral rapamycin) [ng/mL] | Cmax of rapamycin (60 mg oral rapamycin) [ng/mL] | Half-life [1] [h] | Grade 3 or 4 depression (patients; phase 2 study, 250 mg dose level) [%] | Compound | Patients with dermatologic toxicities such as rash (patients; patients receiving temsirolimus)
1 | 45 to 52 | – | – | – | – | – | CO[C@H]1C[C@@H]2CC[C@@H](C)[C@@](O)(O2)C(=O)C(=O)N2CCCC[C@H]2C(=O)O[C@H]([C@H](C)C[C@@H]2CC[C@@H](OP(C)(C)=O)[C@H](OC)C2)CC(=O)[C@H](C)/C=C(\C)[C@@H](O)[C@@H](OC)C(=O)[C@H](C)C[C@H](C)/C=C/C=C/C=C/1C [deferolimus] | –
2 | – | 15.5 | 37.9 | 57.72 | 61 to 69 | – | CO[C@H]1C[C@@H]2CC[C@@H](C)[C@@](O)(O2)C(=O)C(=O)N2CCCC[C@H]2C(=O)O[C@H]([C@H](C)C[C@@H]2CC[C@@H](O)[C@H](OC)C2)CC(=O)[C@H](C)/C=C(\C)[C@@H](O)[C@@H](OC)C(=O)[C@H](C)C[C@H](C)/C=C/C=C/C=C/1C [rapamycin] | –
3 | – | – | – | – | 61 to 69 | 10 | CO[C@H]1C[C@@H]2CC[C@@H](C)[C@@](O)(O2)C(=O)C(=O)N2CCCC[C@H]2C(=O)O[C@H]([C@H](C)C[C@@H]2CC[C@@H](OC(=O)C(C)(CO)CO)[C@H](OC)C2)CC(=O)[C@H](C)/C=C(\C)[C@@H](O)[C@@H](OC)C(=O)[C@H](C)C[C@H](C)/C=C/C=C/C=C/1C [temsirolimus] | up to 50%
